# Laboratory results taken from patent US20240189309A1, “TYK2 INHIBITORS AND USES THEREOF” (Sudo Biosciences Limited, priority 2021, published 2024).
# pIC50: −log10 of the molar value.
# Legend:
# TYK2-JH1 = molecular target: T1, TYK2-JH1 (Homo sapiens, UniProt P29597); assay: HTRF-based selectivity assay, TYK2 catalytic domain; format: biochemical; conditions: kinase domain (JH1), ATP 20 μM
# T1 construct: recombinant purified His or GST-tagged catalytic domain for each enzyme; made in house
# T1 sequence (P29597 897-1176 limits assumed): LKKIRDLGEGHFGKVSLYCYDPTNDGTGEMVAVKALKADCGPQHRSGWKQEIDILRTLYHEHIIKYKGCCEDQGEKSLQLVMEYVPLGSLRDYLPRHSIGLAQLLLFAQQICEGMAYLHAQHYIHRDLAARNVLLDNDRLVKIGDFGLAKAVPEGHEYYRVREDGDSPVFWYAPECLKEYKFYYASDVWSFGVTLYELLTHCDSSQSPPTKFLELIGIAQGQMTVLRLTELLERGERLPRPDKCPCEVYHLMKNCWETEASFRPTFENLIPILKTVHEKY
# Experimental: (§1) Example B-2: HTRF-Based Selectivity Assay
# (§2) The ability of compounds to inhibit the activity of JAK1, JAK2, JAK3 and TYK2 is measured using a recombinant purified His or GST-tagged catalytic domain for each enzyme (JAK1, JAK2 and TYK2 are generated in-house; JAK3 was purchased from Carna biosciences, Cat #08-046) in an HTRF format biochemical assay. The reactions employs a commercial peptide substrate from Cisbio (Cat #62TK0PEC). The basic assay protocol is as follows: first, 2.5 μL of diluted compounds (4×) in DMSO are dispensed into a 384-well Optiplate. Next, 2.5 μL of enzyme (final concentrations for enzymes are: TYK2—700 ng/mL, JAK1—80.6 ng/mL, JAK2—2.1 ng/mL and JAK3—171.8 ng/mL) is added and incubated at RT for 5-20 min. Finally, 5 μl of mixture of 2×ATP [Final concentration 20 μM for TYK2, 21.43 μM for JAK1, 14.7 μM for JAK2 and 2.12 μM for JAK3]+2× Substrate [Final concentration 217 nM for TYK2, 454.7 nM for JAK1, 200 nM for JAK2 and 257.4 nM for JAK3] is added to 384 well Optiplate. Composition of Kinase assay buffer used in the assay is as follows: HEPES 50 mM, EGTA 1 mM, MgCl2 10 mM, DTT 2 mM, Tween-20 0.01% and water. Then the plates are shaken and then incubated at 26.5° C. for 60 min.
# JAK3-JH1 = molecular target: T2, JAK3-JH1 (Homo sapiens, UniProt P52333); assay: HTRF-based selectivity assay, JAK3 catalytic domain; format: biochemical; conditions: kinase domain (JH1), ATP 2.12 μM
# T2 construct: recombinant purified His or GST-tagged catalytic domain for each enzyme; purchased Carna biosciences 08-046
# T2 sequence (P52333 822-1111 limits assumed): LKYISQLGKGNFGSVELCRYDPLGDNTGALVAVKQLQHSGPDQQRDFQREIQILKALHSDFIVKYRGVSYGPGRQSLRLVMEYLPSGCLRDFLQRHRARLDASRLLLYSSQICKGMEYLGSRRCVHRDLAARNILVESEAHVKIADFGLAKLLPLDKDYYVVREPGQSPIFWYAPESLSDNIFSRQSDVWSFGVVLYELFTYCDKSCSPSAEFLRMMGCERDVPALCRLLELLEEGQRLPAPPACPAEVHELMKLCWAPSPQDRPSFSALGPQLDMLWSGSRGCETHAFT
# Experimental: as §1, §2
# TYK2 Pseudokinase (JH2) [1] = molecular target: T3, TYK2 Pseudokinase (JH2) (Homo sapiens, UniProt P29597); assay: HEK-Blue IFNα/β reporter assay (SEAP) for profiling TYK2 pseudokinase (JH2) inhibition; format: cell-based; conditions: HEK-Blue IFNα/β cells, 1 ng/mL human recombinant IFNα, read-out: IFNα (TYK2 inhibitory activity, IC50)
# T3 sequence (P29597 whole entry): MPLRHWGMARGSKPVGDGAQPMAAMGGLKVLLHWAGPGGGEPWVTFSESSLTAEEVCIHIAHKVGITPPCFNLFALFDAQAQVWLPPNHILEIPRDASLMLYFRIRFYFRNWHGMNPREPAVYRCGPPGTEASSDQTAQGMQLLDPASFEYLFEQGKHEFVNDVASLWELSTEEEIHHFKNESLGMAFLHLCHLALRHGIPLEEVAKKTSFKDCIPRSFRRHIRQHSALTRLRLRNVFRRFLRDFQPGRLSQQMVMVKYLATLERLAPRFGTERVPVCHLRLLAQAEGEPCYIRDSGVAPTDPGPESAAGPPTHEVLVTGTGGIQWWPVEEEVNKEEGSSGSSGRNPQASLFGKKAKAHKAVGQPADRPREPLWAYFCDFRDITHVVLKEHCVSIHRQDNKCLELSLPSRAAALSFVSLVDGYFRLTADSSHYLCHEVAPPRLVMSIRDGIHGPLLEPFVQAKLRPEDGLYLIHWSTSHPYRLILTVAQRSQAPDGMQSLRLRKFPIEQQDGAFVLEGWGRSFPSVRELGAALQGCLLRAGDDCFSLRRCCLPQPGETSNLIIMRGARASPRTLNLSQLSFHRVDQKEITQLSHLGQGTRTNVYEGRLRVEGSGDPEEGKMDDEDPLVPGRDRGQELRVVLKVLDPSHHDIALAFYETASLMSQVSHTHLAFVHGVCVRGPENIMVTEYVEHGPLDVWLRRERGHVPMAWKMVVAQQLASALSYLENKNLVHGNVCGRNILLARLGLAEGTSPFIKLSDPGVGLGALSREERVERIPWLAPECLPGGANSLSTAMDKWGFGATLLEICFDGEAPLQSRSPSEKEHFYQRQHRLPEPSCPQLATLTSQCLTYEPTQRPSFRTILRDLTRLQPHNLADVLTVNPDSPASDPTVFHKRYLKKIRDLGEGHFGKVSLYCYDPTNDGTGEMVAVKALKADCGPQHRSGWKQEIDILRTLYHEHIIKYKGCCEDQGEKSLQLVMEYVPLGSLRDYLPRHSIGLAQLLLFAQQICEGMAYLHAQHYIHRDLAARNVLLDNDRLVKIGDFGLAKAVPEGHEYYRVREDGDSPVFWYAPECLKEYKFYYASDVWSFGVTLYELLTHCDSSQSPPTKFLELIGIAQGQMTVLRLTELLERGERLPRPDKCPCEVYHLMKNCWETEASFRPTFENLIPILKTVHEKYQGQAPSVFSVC
# Experimental: (§3) Example B-1: HEK-Blue™ IL-23 and IFNα/β Reporter Assays for Profiling TYK2 Pseudokinase (JH2) Inhibition
# (§4) HEK-Blue™ IL-23 and IFNα/β cells with a stably-integrated cytokine receptor and STAT3 or STAT1 express STAT-inducible secreted embryonic alkaline phosphatase (SEAP) reporter gene upon cytokine stimulation. These cells are plated in DMEM (Gibco) containing 10% heat-inactivated FBS (Gibco) and 100 U/mL PenStrep (Gibco) at 37° C. under 5% CO2 conditions for 20-22 hours. The cells are then pretreated with serially diluted test compounds for 60 min prior to stimulation with either 10 ng/mL human recombinant IL-23 (Miltenyl Biotech) or 1 ng/mL human recombinant IFNα (InvivoGen) for 22-24 hours for IL-23 or 16-18 h for IFNα. SEAP induction is measured using the QUANTI Blue™ Solution (InvivoGen) according to the manufacturer's instructions.
# JAK1-JH1 = molecular target: T4, JAK1-JH1 (Homo sapiens, UniProt P23458); assay: HTRF-based selectivity assay, JAK1 catalytic domain; format: biochemical; conditions: kinase domain (JH1), ATP 21.43 μM
# T4 construct: recombinant purified His or GST-tagged catalytic domain for each enzyme; made in house
# T4 sequence (P23458 875-1153 limits assumed): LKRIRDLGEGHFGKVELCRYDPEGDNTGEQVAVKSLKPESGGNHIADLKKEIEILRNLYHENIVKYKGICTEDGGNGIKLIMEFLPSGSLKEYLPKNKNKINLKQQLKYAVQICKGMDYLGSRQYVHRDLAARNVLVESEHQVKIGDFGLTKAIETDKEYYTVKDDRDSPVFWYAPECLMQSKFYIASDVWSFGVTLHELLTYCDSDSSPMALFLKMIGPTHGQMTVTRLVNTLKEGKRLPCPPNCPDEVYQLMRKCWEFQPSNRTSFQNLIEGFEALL
# Experimental: as §1, §2
# TYK2 Pseudokinase (JH2) [2] = molecular target: T3, TYK2 Pseudokinase (JH2); assay: HEK-Blue IL-23 reporter assay (SEAP) for profiling TYK2 pseudokinase (JH2) inhibition; format: cell-based; set-up: HEK-Blue™ IL-23 and IFNα/β cells with a stably-integrated cytokine receptor and STAT3 or STAT1; endogenous in cells; host or cells: HEK-Blue IL-23 and HEK-Blue IFNα/β cells; conditions: HEK-Blue IL-23 cells, 10 ng/mL human recombinant IL-23, SEAP reporter; read-out: IL23 (TYK2 inhibitory activity, IC50)
# Experimental: as §3, §4
# [3] = test system: HEK-Blue™ IFNγ reporter cells; assay: HEK-Blue IFNγ reporter assay (SEAP) for determining selectivity; format: cell-based; conditions: 50 ng/mL human recombinant IFNγ, read-out: IFN-γ (SEAP selectivity, IC50)
# Experimental: (§5) Example B-3: HEK-Blue™ IL-2 and IFNγ Reporter Assays for Determining Selectivity
# (§6) HEK-Blue™ IL-2 and IFNγ reporter cells with a stably-integrated cytokine receptor and STAT5 or STAT1 express STAT-inducible secreted embryonic alkaline phosphatase (SEAP) reporter gene upon cytokine stimulation. These cells were plated in DMEM (Gibco) containing 10% heat-inactivated FBS (Gibco) and 100 U/mL PenStrep (Gibco) at 37° C. under 5% CO2 conditions for 20-22 hours. The cells were then pre-treated with serially diluted test compounds for 60 min prior to stimulation with either 4 ng/mL human recombinant IL-2 (Miltenyl Biotech) or 50 ng/mL human recombinant IFNγ (InvivoGen) for 24 hours. SEAP induction was measured using the QUANTI-Blue™ Solution (InvivoGen) according to the manufacturer's instructions.
# [4] = test system: HEK-Blue™ IL-2 reporter cells; assay: HEK-Blue IL-2 reporter assay (SEAP) for determining selectivity; format: cell-based; conditions: HEK-Blue IL-2 cells, 4 ng/mL human recombinant IL-2, SEAP reporter
# Experimental: as §5, §6
# JAK2-JH1 = molecular target: T5, JAK2-JH1 (Homo sapiens, UniProt O60674); assay: HTRF-based selectivity assay, JAK2 catalytic domain; format: biochemical; conditions: kinase domain (JH1), ATP 14.7 μM
# T5 construct: recombinant purified His or GST-tagged catalytic domain for each enzyme; made in house
# T5 sequence (O60674 849-1124 limits assumed): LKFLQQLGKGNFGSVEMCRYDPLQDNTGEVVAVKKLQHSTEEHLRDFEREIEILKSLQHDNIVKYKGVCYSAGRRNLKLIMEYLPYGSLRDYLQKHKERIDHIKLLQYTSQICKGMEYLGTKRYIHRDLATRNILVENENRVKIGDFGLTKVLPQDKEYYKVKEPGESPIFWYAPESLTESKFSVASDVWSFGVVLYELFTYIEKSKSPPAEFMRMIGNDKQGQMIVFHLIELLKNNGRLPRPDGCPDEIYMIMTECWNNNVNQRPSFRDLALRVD
# Experimental: as §1, §2
SMILES,pIC50 (TYK2-JH1),pIC50 (JAK3-JH1),pIC50 (TYK2 Pseudokinase (JH2) [1]),pIC50 (JAK1-JH1),pIC50 (TYK2 Pseudokinase (JH2) [2]),pIC50 [3],pIC50 [4],pIC50 (JAK2-JH1)
"CNC(=O)c1nnc(Nc2ccc(F)cn2)cc1Nc1cccc2c1OCc1conc1-2 [Compound 2, 4-((4H-chromeno[4,3-c]isoxazol-6-yl)amino)-6-((5-fluoropyridin-2-yl)amino)-N-methylpyridazine-3-carboxamide]",< 6.00,< 6.00,< 6.00,< 6.00,> 7.52,6.00 to 6.52,< 6.00,< 6.00
"CNC(=O)c1nnc(NC(=O)C2CC2)cc1Nc1cccc2c1OCc1c-2noc1C [Compound 3, 6-(cyclopropanecarboxamido)-N-methyl-4-((3-methyl-4H-chromeno[4,3-c]isoxazol-6-yl)amino)pyridazine-3-carboxamide]",,,,,6.52 to 7.52,< 6.00,< 6.00,
"[2H]C([2H])([2H])NC(=O)c1cnc(NC(=O)C2CC2)cc1Nc1cccc2c1N(C)Cc1nn(C)c(=O)n1-2 [Compound 8, 6-(cyclopropanecarboxamido)-4-((2,5-dimethyl-1-oxo-1,2,4,5-tetrahydro-[1,2,4]triazolo[4,3-a]quinoxalin-6-yl)amino)-N-(methyl-d3)nicotinamide]",< 6.00,< 6.00,> 7.52,< 6.00,> 7.52,6.00 to 6.52,< 6.00,< 6.00
"[2H]C([2H])([2H])NC(=O)c1cnc(Nc2ccc(F)cn2)cc1Nc1cccc2c1N(C)Cc1nn(C)c(=O)n1-2 [Compound 9, 4-((2,5-dimethyl-1-oxo-1,2,4,5-tetrahydro-[1,2,4]triazolo[4,3-a]quinoxalin-6-yl)amino)-6-((5-fluoropyridin-2-yl)amino)-N-(methyl-d3)nicotinamide]",< 6.00,< 6.00,> 7.52,< 6.00,> 7.52,< 6.00,< 6.00,< 6.00
"[2H]C([2H])([2H])NC(=O)c1cnc(Nc2ccc(F)cn2)cc1Nc1cccc2c1N(C)Cc1nnnn1-2 [Compound 10, 6-((5-fluoropyridin-2-yl)amino)-N-(methyl-d3)-4-((5-methyl-4,5-dihydrotetrazolo[1,5-a]quinoxalin-6-yl)amino)nicotinamide]",< 6.00,< 6.00,6.52 to 7.52,< 6.00,> 7.52,< 6.00,< 6.00,< 6.00
"CNC(=O)c1cnc(Nc2ccc(F)cn2)cc1Nc1cccc2c1OCCn1nnnc1-2 [Compound 15, 4-((5,6-dihydrobenzo[f]tetrazolo[1,5-d][1,4]oxazepin-8-yl)amino)-6-((5-fluoropyridin-2-yl)amino)-N-methylnicotinamide]",< 6.00,< 6.00,6.00 to 6.52,< 6.00,6.52 to 7.52,,,< 6.00
"[2H]C([2H])([2H])NC(=O)c1nnc(NC(=O)C2CC2)cc1Nc1cc(F)cc2c1N(C)Cc1nn(C)c(=O)n1-2 [Compound 18, 6-(cyclopropanecarboxamido)-4-((8-fluoro-2,5-dimethyl-1-oxo-1,2,4,5-tetrahydro-[1,2,4]triazolo[4,3-a]quinoxalin-6-yl)amino)-N-(methyl-d3)pyridazine-3-carboxamide]",< 6.00,< 6.00,6.52 to 7.52,< 6.00,> 7.52,,< 6.00,< 6.00
"[2H]C([2H])([2H])NC(=O)c1nnc(NC(=O)C2CC2)cc1Nc1nccc2c1N(C)Cc1nn(C)c(=O)n1-2 [Compound 20, 6-(cyclopropanecarboxamido)-4-((2,5-dimethyl-1-oxo-1,2,4,5-tetrahydropyrido[3,4-e][1,2,4]triazolo[4,3-a]pyrazin-6-yl)amino)-N-(methyl-d3)pyridazine-3-carboxamide]",< 6.00,< 6.00,> 7.52,< 6.00,> 7.52,,< 6.00,< 6.00
"[2H]C([2H])([2H])NC(=O)c1cnc(NC(=O)C2CC2)cc1Nc1nccc2c1N(C)Cc1nn(C)c(=O)n1-2 [Compound 21, 6-(cyclopropanecarboxamido)-4-((2,5-dimethyl-1-oxo-1,2,4,5-tetrahydropyrido[3,4-e][1,2,4]triazolo[4,3-a]pyrazin-6-yl)amino)-N-(methyl-d3)nicotinamide]",,,6.52 to 7.52,,> 7.52,6.00 to 6.52,< 6.00,
"[2H]C([2H])([2H])NC(=O)c1cnc(NC(=O)C2CC2)cc1Nc1cccc2c1N(C)Cc1nc(C)oc1-2 [Compound 23, 6-(cyclopropanecarboxamido)-4-((2,5-dimethyl-4,5-dihydrooxazolo[4,5-c]quinolin-6-yl)amino)-N-(methyl-d3)nicotinamide]",,,6.52 to 7.52,,> 7.52,6.52 to 7.52,< 6.00,
"[2H]C([2H])([2H])NC(=O)c1nnc(NC(=O)C2CC2)cc1Nc1nccc2c1N(C)Cc1sc(C)nc1-2 [Compound 36, 6-(cyclopropanecarboxamido)-4-((2,5-dimethyl-4,5-dihydrothiazolo[5,4-c][1,7]naphthyridin-6-yl)amino)-N-(methyl-d3)pyridazine-3-carboxamide]",,,> 7.52,,> 7.52,6.52 to 7.52,6.00 to 6.52,
"[2H]C([2H])([2H])NC(=O)c1nnc(NC(=O)C2CC2)cc1Nc1cccc2c1N(C)CC1CCC(=O)N21 (stereo not drawn) [Compound 37, 6-(cyclopropanecarboxamido)-N-(methyl-d3)-4-((5-methyl-1-oxo-1,2,3,3a,4,5-hexahydropyrrolo[1,2-a]quinoxalin-6-yl)amino)pyridazine-3-carboxamide]",,,6.52 to 7.52,,> 7.52,6.00 to 6.52,< 6.00,
"[2H]C([2H])([2H])NC(=O)c1nnc(NC(=O)C2CC2)cc1Nc1cccc2c1N(C)C[C@H]1CCC(=O)N21 [Compound 38, (R)-6-(cyclopropanecarboxamido)-N-(methyl-d3)-4-((5-methyl-1-oxo-1,2,3,3a,4,5-hexahydropyrrolo[1,2-a]quinoxalin-6-yl)amino)pyridazine-3-carboxamide]",,,6.52 to 7.52,,> 7.52,6.52 to 7.52,6.00 to 6.52,
